Assay results as given in patent publication US20050239656A1, “Pyridine compounds or salts thereof and herbicides containing the same” (priority 2002, published 2005).

Experiments:
japanese ribbon wapato = experiment: Test Example 3: paddy pot test, application under submerged conditions; format: in vivo, Sagittaria pygniaea; conditions: submerged application at primary leaf stage, visually observed 14 days after application, 0 = non-treated, 100 = complete kill
Description: (§1) Paddy field soil was put into a 1/1,000,000 ha pot, and seed of barnyardgrass and japanese bulrush were sown and slightly covered with soil. Then, the pot was left to stand still in a greenhouse in a state where the depth of flooding water was from 0.5 to 1 cm, and one day or two days later, tubers of japanese ribbon wapato were planted. Thereafter, the depth of flooding water was maintained at a level of from 3 to 4 cm, and when barnyardgrass and japanese bulrush reached a 0.5 leaf stage and japanese ribbon wapato reached a primary leaf stage, an aqueous diluted solution of a wettable powder or emulsifiable concentrate having the compound of the present invention formulated in accordance with a usual formulation method, was uniformly applied under submerged conditions by a pipette so that the dose of the active ingredient would be at a predetermined level. On the 14 days after the application of the herbicide, the growth of barnyard grass, japanese burlrush and japanese ribbon wapato was visually observed and on the 21st day after the application of the herbicide, the growth of rice was visually observed, and the herbicidal effects were evaluated by the growth-controlling degrees (%) ranging from 0 (equivalent to the non-treated plot) to 100 (complete kill), whereby the results shown in Table 5 were obtained.

japanese bulrush = experiment: as above; format: in vivo, Scirpus juncoides; conditions: submerged application at 0.5 leaf stage, visually observed 14 days after application, 0 = non-treated, 100 = complete kill
Description: as §1

barnyardgrass = experiment: as above; format: in vivo, Echinochloa crus-galli L.; conditions: submerged application at 0.5 leaf stage, visually observed 14 days after application, 0 = non-treated, 100 = complete kill
Description: as §1

rice (var. Nihonbare) = experiment: Test Example 3: paddy pot test, transplanted rice; format: in vivo, Oryza sativa L.; conditions: applied 4th day after transplantation, visually observed 21st day after application, 0 = non-treated, 100 = complete kill
Description: as §1, with “On the other hand, paddy field soil was put into a 1/1,000,000 ha pot and puddled and leveled, and the depth of flooding water was from 3 to 4 cm. Next day, rice (var. Nihonbare) of 2 leaf stage was transplanted in a depth of 3 cm. On the 4th day after the transplantation, the compound of the present invention was applied in the same manner as described above. On the 14 days” for “On the 14 days”

Compound	Growth controlling degree (%) Japanese ribbon wapato (japanese ribbon wapato; active ingredient 250 g/ha) [%]	Growth controlling degree (%) Japanese bulrush (japanese bulrush; active ingredient 250 g/ha) [%]	Growth controlling degree (%) Barnyardgrass (barnyardgrass; active ingredient 250 g/ha) [%]	Growth controlling degree (%) Rice (rice (var. Nihonbare); active ingredient 250 g/ha) [%]	Growth controlling degree (%) Japanese ribbon wapato (japanese ribbon wapato; active ingredient 500 g/ha) [%]	Growth controlling degree (%) Japanese bulrush (japanese bulrush; active ingredient 500 g/ha) [%]	Growth controlling degree (%) Barnyardgrass (barnyardgrass; active ingredient 500 g/ha) [%]	Growth controlling degree (%) Rice (rice (var. Nihonbare); active ingredient 500 g/ha) [%]
CC(C)C(c1cnccc1C(F)(F)F)N(C)C(=O)Cc1cc(Cl)cc(Cl)c1 (stereo not drawn) [I-91]	20	20	90	0	–	–	–	–
CC(C)C(c1cccnc1)N(C)C(=O)Cc1ccccc1 (stereo not drawn) [I-93]	–	–	–	–	30	95	60	0
CCN(C(=O)Cc1cc(F)ccc1F)C(c1cnccc1C(F)(F)F)C(C)C (stereo not drawn) [I-98]	40	80	100	10	–	–	–	–
Cc1ccc(F)c(CC(=O)N(C)C(c2cnccc2C(F)(F)F)C(C)C)c1 (stereo not drawn) [I-108]	60	100	98	10	–	–	–	–
CC(C)C(c1cnccc1C(F)(F)F)N(C)S(=O)(=O)c1ccc(C(F)(F)F)cc1 (stereo not drawn) [I-146]	0	80	98	20	–	–	–	–
CC(C)C(c1cnccc1C(F)(F)F)N(C)C(=O)C=COc1ccccc1 (stereo not drawn) [I-166, N-methyl-N-[2-methyl-1-(4-trifluoromethylpyridin-3-yl)propyl]3-phenoxypropenamide]	0	95	100	0	–	–	–	–
CC(C)C(c1cnccc1C(F)(F)F)N(C)C(=O)C=Cc1ccc(Cl)cc1 (stereo not drawn) [I-171]	0	98	60	0	–	–	–	–
CC(C)C(c1cnccc1C(F)(F)F)N(C)C(=O)C=Cc1cccs1 (stereo not drawn) [I-173]	30	95	90	0	–	–	–	–
CC(=CC(=O)N(C)C(c1cnccc1C(F)(F)F)C(C)C)c1ccccc1 (stereo not drawn) [I-174]	0	95	10	0	–	–	–	–
CC(C)C(c1cnccc1C(F)(F)F)N(C)C(=O)C=C1CCCC1 (stereo not drawn) [I-176]	0	98	98	0	–	–	–	–
CC(C)C(c1cnccc1C(F)(F)F)N(C)C(=O)C=C1CCCCC1 (stereo not drawn) [I-177]	20	98	60	20	–	–	–	–
CC(C)C(c1cnccc1C(F)(F)F)N(C)C(=O)C=Cc1cccc(Br)c1 (stereo not drawn) [I-179]	–	–	–	–	30	90	90	10
CC(C)C(c1cnccc1C(F)(F)F)N(C)C(=O)C=Cc1ccc2ccccc2c1 (stereo not drawn) [I-188]	–	–	–	–	0	0	100	0
CC(C)C(c1cnccc1C(F)(F)F)N(C)C(=O)C1CCCC1 (stereo not drawn) [I-212]	80	98	100	30	–	–	–	–
CCN(C(=O)N(C)C(c1cnccc1C(F)(F)F)C(C)C)c1ccccc1 (stereo not drawn) [I-233]	–	–	–	–	40	90	95	10
CC(C)C(c1cnccc1C(F)(F)F)N(C)C(=O)COc1ccccc1Cl (stereo not drawn) [I-235]	60	90	100	0	–	–	–	–
CC(C)C(c1cnccc1C(F)(F)F)N(C)C(=O)COc1ccc(Cl)cc1Cl (stereo not drawn) [I-236]	70	80	95	0	–	–	–	–
CC(C)C(c1cnccc1C(F)(F)F)N(C)C(=O)COc1ccc([N+](=O)[O-])cc1 (stereo not drawn) [I-237]	40	95	95	0	–	–	–	–
Cc1cccc(OCC(=O)N(C)C(c2cnccc2C(F)(F)F)C(C)C)c1 (stereo not drawn) [I-238]	60	95	95	20	–	–	–	–
Cc1ccccc1OCC(=O)N(C)C(c1cnccc1C(F)(F)F)C(C)C (stereo not drawn) [I-240]	50	100	100	0	–	–	–	–
CC(C)C(c1cnccc1C(F)(F)F)N(C)C(=O)COc1cccc(Cl)c1 (stereo not drawn) [I-247]	0	95	100	0	–	–	–	–
CC(C)C(c1cnccc1C(F)(F)F)N(C)C(=O)COc1ccc(Cl)cc1 (stereo not drawn) [I-248]	20	98	98	0	–	–	–	–
CC(C)C(c1cnccc1C(F)(F)F)N(C)C(=O)COc1c(F)c(F)c(F)c(F)c1F (stereo not drawn) [I-252]	0	98	95	0	–	–	–	–
CC(C)C(c1cnccc1C(F)(F)F)N(C)C(=O)COc1cc([N+](=O)[O-])c(Cl)cc1Cl (stereo not drawn) [I-253]	0	20	90	10	–	–	–	–
